# Test results from patent publication US9796710B2, “Dihydropyrrolopyridine inhibitors of ROR-gamma” (Vitae Pharmaceuticals, Inc., priority 2014, dated 2017).
# pIC50: −log10 of the molar value. Where two headings read alike, the source gives them in different places.
# Columns and labels:
# [1] = target: recombinant RORγ Ligand Binding Domain (LBD) protein (Homo sapiens (Human), UniProt P51449); experiment: Radio-Ligand RORγ Binding Assay (Assay 1); settings: read-out: RORγ Binding Ki Range* (nM) (Assay 1)
# Sequence of recombinant RORγ Ligand Binding Domain (LBD) protein (P51449 269-508): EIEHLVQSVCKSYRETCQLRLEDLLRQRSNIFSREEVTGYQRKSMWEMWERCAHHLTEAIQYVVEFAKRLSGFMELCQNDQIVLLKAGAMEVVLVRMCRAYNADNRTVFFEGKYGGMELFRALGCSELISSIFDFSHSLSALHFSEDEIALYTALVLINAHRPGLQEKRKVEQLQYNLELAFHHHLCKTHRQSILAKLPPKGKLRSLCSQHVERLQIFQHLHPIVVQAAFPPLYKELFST
# Method: Radio-Ligand ROR ? Binding Assay (Assay 1)
# The plate was shaken at 700 rpm for 20 min and incubated for 10 min at rt, after which 40 μL of poly-Lys YSi SPA beads (PerkinElmer, Cat. # RPNQ0010) were added to achieve 50 μg of the beads per well. The plate was incubated on an orbital shaker for 20 min and then for 10 min without agitation at rt. SPA signal for tritium beta radiation was registered on PerkinElmer Microbeta plate reader. […] The percent inhibition vs. concentration data were fit into a four-parameter model, and IC50 values were calculated from the fit as the concentrations corresponding to the inflection points on the dose-response curves.
# [2] = target: full-length RORγt in Jurkat cells (Homo sapiens (Human), UniProt P51449)
# Sequence of full-length RORγt in Jurkat cells (P51449 other isoform, or with tags, fused parts or gaps): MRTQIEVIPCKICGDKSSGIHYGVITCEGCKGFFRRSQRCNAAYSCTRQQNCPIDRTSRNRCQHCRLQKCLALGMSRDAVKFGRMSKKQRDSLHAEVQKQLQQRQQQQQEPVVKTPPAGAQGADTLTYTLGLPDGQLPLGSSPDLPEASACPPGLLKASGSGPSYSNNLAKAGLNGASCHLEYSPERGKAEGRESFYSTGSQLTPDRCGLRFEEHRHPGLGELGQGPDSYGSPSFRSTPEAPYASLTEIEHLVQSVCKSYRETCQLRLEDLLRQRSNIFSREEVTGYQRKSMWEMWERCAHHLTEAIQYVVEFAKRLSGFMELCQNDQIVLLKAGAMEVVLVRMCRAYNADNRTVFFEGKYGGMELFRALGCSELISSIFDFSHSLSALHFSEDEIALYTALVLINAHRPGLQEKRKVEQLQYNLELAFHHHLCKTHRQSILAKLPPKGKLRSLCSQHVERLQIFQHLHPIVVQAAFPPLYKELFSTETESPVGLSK
# Method: ROR ? t 5×RORE Assay in Jurkat Cells (Assay 2)
# Compounds of the present invention were tested for ROR ? inverse agonist activity in a cell-based, transcriptional activity assay. […] Luciferase activity in the conditioned supernatants was determined with NanoGlo® assay reagents (Promega, Cat.# N1130).
# [3] = system: IL-17A production; experiment: Human Whole Blood Assay (Assay 3); assay type: cell-based; settings: IL-17A secretion, CytoStim, 48 h, 50% blood/media
# Method: Human Whole Blood Assay (Assay 3)
# Compounds of the invention were tested in the human whole blood assay to measure their effects on IL-17A production as determined by cytokine secretion into 50% blood/media supernatant. Mixtures of sodium heparinized whole blood (isolated from healthy human donors) and the T cell activator CytoStim, in the presence or absence of compound, were plated in sterilized, tissue culture-treated 24-well plates. Specifically, the mixtures in each well were as follows: (1) 500 μL of whole blood, (2) 250 μL of compound diluted into RPMI-1640 media containing 10% HyClone™ FCS (Thermo Fisher Scientific, Waltham, Mass.), Gibco® Pen/Strep and Gibco® NEAA (Life Technologies, Grand Island, N.Y.), and (3) 250 μL of CytoStim (Miltenyi Biotech, Germany) diluted to a final concentration of 10 μL/mL in complete cell culture medium.
# IL-17A cytokine expression was determined using 25 μL of the transferred supernatant diluted with 25 μL of Diluent 43 from the Human IL-17A V-PLEX™ kit (cat. # K151RFD-4, Meso Scale Discovery, Rockville, Md.). The assay was performed according to the manufacturer's instructions using included reagents. The IL-17A V-PLEX™ plates were read using the Meso Scale Discovery Imager (Model 1200).
# [4] = target: hERG potassium ion channel (Homo sapiens (Human), UniProt Q12809); experiment: hERG Assay (Assay 4); assay type: cell-based; settings: HEK293 cells stably transfected with hERG cDNA, pH 7.4, Compound at 3 μM, patch clamp, HEK 293 cells
# Sequence of hERG potassium ion channel (Q12809 whole entry): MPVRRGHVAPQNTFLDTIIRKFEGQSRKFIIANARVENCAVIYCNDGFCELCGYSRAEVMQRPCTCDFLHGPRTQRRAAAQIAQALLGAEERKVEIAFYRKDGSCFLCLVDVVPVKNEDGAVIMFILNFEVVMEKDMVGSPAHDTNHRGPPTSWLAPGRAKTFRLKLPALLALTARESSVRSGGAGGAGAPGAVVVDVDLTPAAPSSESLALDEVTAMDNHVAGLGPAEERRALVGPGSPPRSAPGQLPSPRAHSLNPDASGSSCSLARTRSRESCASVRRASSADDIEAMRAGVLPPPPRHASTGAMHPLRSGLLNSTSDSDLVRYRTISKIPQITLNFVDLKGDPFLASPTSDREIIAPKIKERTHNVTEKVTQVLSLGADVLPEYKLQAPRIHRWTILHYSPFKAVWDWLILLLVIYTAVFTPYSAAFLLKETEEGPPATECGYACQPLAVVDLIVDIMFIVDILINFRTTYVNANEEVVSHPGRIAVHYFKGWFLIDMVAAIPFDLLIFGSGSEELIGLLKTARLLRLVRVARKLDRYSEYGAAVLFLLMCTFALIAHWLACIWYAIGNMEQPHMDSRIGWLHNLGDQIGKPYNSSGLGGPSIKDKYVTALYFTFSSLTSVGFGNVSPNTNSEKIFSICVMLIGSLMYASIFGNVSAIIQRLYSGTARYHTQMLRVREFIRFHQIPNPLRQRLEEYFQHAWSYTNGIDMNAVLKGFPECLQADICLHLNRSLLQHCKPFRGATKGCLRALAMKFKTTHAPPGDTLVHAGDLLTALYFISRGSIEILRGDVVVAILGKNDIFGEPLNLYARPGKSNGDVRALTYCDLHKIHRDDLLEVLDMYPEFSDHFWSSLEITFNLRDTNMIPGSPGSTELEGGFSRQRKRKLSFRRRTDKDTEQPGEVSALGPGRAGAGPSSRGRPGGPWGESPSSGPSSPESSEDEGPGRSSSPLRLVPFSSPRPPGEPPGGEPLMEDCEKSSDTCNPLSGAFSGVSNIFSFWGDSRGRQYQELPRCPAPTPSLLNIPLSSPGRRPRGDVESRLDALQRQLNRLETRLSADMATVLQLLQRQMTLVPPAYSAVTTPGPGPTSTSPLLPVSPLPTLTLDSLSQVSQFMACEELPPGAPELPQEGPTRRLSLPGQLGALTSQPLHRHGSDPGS
# Method: Compounds of the invention were tested in vitro against the hERG (human ether-a-go-go-related gene) potassium ion channel (a surrogate for IKr, the rapidly activating delayed rectifier cardiac potassium ion channel).
# The buffer was HEPES-buffered physiological saline (HB-PS) solution composed of: 137 mM NaCl, 4.0 mM KCl, 1.8 mM CaCl2, 1 mM MgCl2, 10 mM HEPES, 10 mM glucose, pH adjusted to 7.4 with NaOH, and 0.3% DMSO. Chemicals used in solution preparation were purchased from Sigma-Aldrich (St. Louis, Mo.), unless otherwise noted, and were of ACS reagent grade purity or higher.
# HEK (human embryonic kidney) 293 cells were stably transfected with hERG cDNA.
# For the patch clamp experiment, onset and steady state inhibition of hERG potassium current was measured using a pulse pattern with fixed amplitudes (depolarization: +20 mV for 2 s; repolarization: −50 mV for 2 s) repeated at 10 s intervals from a holding potential of −80 mV. Peak tail current was measured during the 2 s step to −50 mV. A steady state was maintained for at least 30 seconds before applying compound or positive control (cisapride). Peak tail currents were measured until a new steady state was achieved.
# Data acquisition and analyses were performed using the suite of pCLAMP® (ver. 8.2) programs (MDS Analytical Technologies, Sunnyvale, Calif.). Steady state was defined by the limiting constant rate of change with time (linear time dependence). The steady state before and after each compound application was used to calculate the percentage of current inhibited at each concentration. Concentration-response data were fit to an equation of the following form: % Inhibition={1−1/[1+([Test]/IC50)N]}*100
# where [Test] was the compound concentration, IC50 was the compound concentration at half-maximal inhibition, N was the Hill coefficient, and % Inhibition was the percentage of current inhibited at each compound concentration. Nonlinear least squares fits were solved with the Solver add-in for Excel 2003 (Microsoft, WA) and the IC50 was calculated.
# [5] = cell-free competition with 25-hydroxy [26,27-3H]-cholesterol
Compound,"Ki [1, 5]",pIC50 [2],also measured
CCS(=O)(=O)c1ccc([C@@H](CO)NC(=O)c2cnc3c(c2)CN(C[C@H]2CC[C@H](C(F)(F)F)CC2)[C@H]3C(C)C)cc1 [Compound 47],< 100 nM,,
CC[C@H]1c2ncc(C(=O)N[C@@H](CO)c3ccc(S(C)(=O)=O)cc3)cc2CN1C[C@H]1CC[C@H](C(F)(F)F)CC1 [Compound 24],< 100 nM,> 7.00,
"CC[C@H]1c2ncc(C(=O)N[C@@H](CO)c3ccc(S(=O)(=O)CC)cc3)cc2CN1C[C@@H]1CC[C@@H](C(F)(F)F)OC1 (single isomer, unassigned) [Compound 11]",< 100 nM,> 7.00,
"CCS(=O)(=O)c1ccc([C@H](CO)NC(=O)c2cnc3c(c2)CN(C[C@H]2CC[C@H](C(F)(F)F)CO2)[C@H]3C(C)C)cc1 (single isomer, unassigned) [Compound 15]",< 100 nM,> 7.00,
CCS(=O)(=O)c1ccc([C@H](CO)NC(=O)c2cnc3c(c2)CN(C[C@@H]2CC[C@@H](C(F)(F)F)OC2)[C@H]3C(C)C)nc1 [Compound 1],< 100 nM,> 7.00,IC50 [3]: < 100 nM
"CC[C@H]1c2ncc(C(=O)N[C@@H](CO)c3ccc(S(=O)(=O)CC)cc3)cc2CN1C[C@H]1CC[C@H](C(F)(F)F)CC1 [Compound 41, (S)-7-ethyl-N—((R)-1-(4-(ethylsulfonyl)phenyl)-2-hydroxyethyl)-6-((trans-4-(trifluoromethyl)cyclohexyl)methyl)-6,7-dihydro-5H-pyrrolo[3,4-b]pyridine-3-carboxamide]",,,inhibition at 3 µM [4]: 7.7%
CCS(=O)(=O)c1ccc([C@H](CO)NC(=O)c2cnc3c(c2)CN(C[C@H]2CC[C@H](C(F)(F)F)CC2)[C@H]3Cc2ccccc2)cc1 [Compound 37],< 100 nM,,
CCS(=O)(=O)c1ccc(C(C)(CO)NC(=O)c2cnc3c(c2)CN(C[C@H]2CC[C@H](C(F)(F)F)CC2)[C@H]3C(C)C)cc1 (some centres unmarked) [Compound 7],< 100 nM,,
CCS(=O)(=O)c1ccc([C@H](CO)NC(=O)c2cnc3c(c2)CN(C[C@H]2CC[C@H](C(F)(F)F)OC2)[C@H]3C(C)C)nc1 [Compound 4],,> 7.00,Ki [1]: < 100 nM; IC50 [3]: < 100 nM
"CCS(=O)(=O)c1ccc([C@H](CO)NC(=O)c2cnc3c(c2)CN(C[C@@H]2CC[C@H](C(F)(F)F)CO2)[C@H]3C(C)C)cc1 (single isomer, unassigned) [Compound 18]",< 100 nM,< 6.00,
CCS(=O)(=O)c1ccc([C@@H](NC(=O)c2cnc3c(c2)CN(C[C@H]2CC[C@H](C(F)(F)F)CC2)[C@H]3C(C)C)[C@@H](C)O)cc1 [Compound 30],100 to 1000 nM,,
CCS(=O)(=O)c1ccc([C@@H](CO)NC(=O)c2cnc3c(c2)CN(C[C@H]2CC[C@H](C(F)(F)F)CC2)[C@H]3C(C)C)nc1 [Compound 44],,,inhibition at 3 µM [4]: 28.6%
"CCS(=O)(=O)c1ccc([C@H](CO)NC(=O)c2cnc3c(c2)CN(C)[C@@H]3Cc2ccccc2)cc1 (single isomer, unassigned) [Compound 34]",100 to 1000 nM,,
CC[C@H]1c2ncc(C(=O)N[C@@H](CO)c3ccc(S(=O)(=O)CC)cn3)cc2CN1C[C@H]1CC[C@H](C(F)(F)F)CC1 [Compound 33],,,inhibition at 3 µM [4]: 29.1%
"CCS(=O)(=O)c1ccc([C@H](CO)NC(=O)c2cnc3c(c2)CN(C[C@H]2CC[C@@H](C(F)(F)F)CO2)[C@H]3C(C)C)cc1 (single isomer, unassigned) [Compound 21]",< 100 nM,< 6.00,
CCS(=O)(=O)c1ccc([C@H](CO)NC(=O)c2cnc3c(c2)CN(C[C@@H]2CC[C@@H](C(F)(F)F)OC2)[C@H]3C(C)C)cc1 [Compound 2],< 100 nM,> 7.00,

# More lines, main results first:
"Ki [1, 5]",pIC50 [2],Compound,also measured
< 100 nM,,CCS(=O)(=O)c1ccc([C@H](CO)NC(=O)c2cnc3c(c2)CN(CC(F)(F)F)[C@H]3Cc2ccccc2)cc1 [Compound 22],
< 100 nM,> 7.00,CCS(=O)(=O)c1ccc([C@H](CO)NC(=O)c2cnc3c(c2)CN(C[C@@H]2CC[C@@H](C(F)(F)F)CO2)[C@H]3C(C)C)cc1 [Compound 14],
< 100 nM,,CCS(=O)(=O)c1ccc([C@H](CO)NC(=O)c2cnc3c(c2)CN(C[C@H]2CC[C@H](C(F)(F)F)CC2)[C@H]3CC2CCOCC2)cc1 [Compound 27],
100 to 1000 nM,,CCS(=O)(=O)c1ccc([C@@H](NC(=O)c2cnc3c(c2)CN(C[C@H]2CC[C@H](C(F)(F)F)CC2)[C@H]3C(C)C)[C@@H](C)O)cc1 [Compound 29],
> 1000 nM,,CCS(=O)(=O)c1ccc([C@H](CO)NC(=O)c2cnc3c(c2)CN(C[C@H]2CC[C@H](C(F)(F)F)CC2)[C@@H]3C)cc1 [Compound 28],
< 100 nM,,"CCS(=O)(=O)c1ccc([C@H](CO)NC(=O)c2cnc3c(c2)CN(C[C@H]2CC[C@H](C(F)(F)F)CC2)[C@H]3C(C)C)cc1 [Compound 46, (S)—N—((R)-1-(4-(ethylsulfonyl)phenyl)-2-hydroxyethyl)-7-isopropyl-6-((trans-4-(trifluoromethyl)cyclohexyl)methyl)-6,7-dihydro-5H-pyrrolo[3,4-b]pyridine-3-carboxamide]",inhibition at 3 µM [4]: 44.3%
< 100 nM,> 7.00,"CC[C@H]1c2ncc(C(=O)N[C@@H](CO)c3ccc(S(=O)(=O)CC)cc3)cc2CN1C[C@H]1CC[C@H](C(F)(F)F)OC1 (single isomer, unassigned) [Compound 10]",
< 100 nM,,CCS(=O)(=O)c1ccc([C@H](CO)NC(=O)c2cnc3c(c2)CN(C[C@H]2CC[C@H](C(F)(F)F)CC2)C3C(F)(F)F)cc1 (some centres unmarked) [Compound 23],
< 100 nM,,CCS(=O)(=O)c1ccc([C@H](CO)NC(=O)c2cnc3c(c2)CN(C[C@H]2CC[C@H](C(F)(F)F)CC2)[C@H]3C)cc1 [Compound 26],
< 100 nM,,CCO[C@H]1CC[C@H](CN2Cc3cc(C(=O)N[C@@H](CO)c4ccc(S(=O)(=O)CC)cc4)cnc3[C@@H]2C(C)C)CC1 [Compound 43],
< 100 nM,> 7.00,"CCS(=O)(=O)c1ccc([C@H](NC(=O)c2cnc3c(c2)CN(C[C@H]2CC[C@H](C(F)(F)F)CC2)[C@H]3C(C)C)[C@H](C)O)cc1 (single isomer, unassigned) [Compound 39]",inhibition at 3 µM [4]: 32.7%
< 100 nM,> 7.00,"CCS(=O)(=O)c1ccc([C@@H](NC(=O)c2cnc3c(c2)CN(C[C@H]2CC[C@H](C(F)(F)F)CC2)[C@H]3C(C)C)[C@@H](C)O)cc1 (single isomer, unassigned) [Compound 42]",inhibition at 3 µM [4]: 63.9%
< 100 nM,,CCS(=O)(=O)c1ccc([C@H](CO)NC(=O)c2cnc3c(c2)CN(CC(F)(F)F)[C@@H]3Cc2ccccc2)cc1 [Compound 19],
< 100 nM,,CCS(=O)(=O)c1ccc([C@H](CO)NC(=O)c2cnc3c(c2)CN(C[C@H]2CC[C@H](C(F)(F)F)CC2)[C@H]3C2CCOCC2)cc1 [Compound 31],
